Test results from paper PMC3510438, “The transmembrane tyrosines Y56, Y91 and Y167 play important roles in determining the affinity and transport rate of the rabbit proton-coupled peptide transporter PepT1” (The International Journal of Biochemistry & Cell Biology, 2009).
Substitutions are numbered along the chain they refer to. Where a SMILES comes first, the peptide text is derived from it.

Key:
Y91F-rPepT1 = molecular target: T1, Y91F-rPepT1 (Oryctolagus cuniculus, UniProt P36836, Y91F); experiment: Uptake of tracer [3H]-D-Phe-L-Gln into Xenopus oocytes; format: cell-based, rabbit; conditions: corrected for surface expression; versus wild-type
T1 construct: expressed in transfected cells; host or cells: Xenopus laevis oocytes injected with cRNA
T1 sequence (P36836 1-707 Y91F): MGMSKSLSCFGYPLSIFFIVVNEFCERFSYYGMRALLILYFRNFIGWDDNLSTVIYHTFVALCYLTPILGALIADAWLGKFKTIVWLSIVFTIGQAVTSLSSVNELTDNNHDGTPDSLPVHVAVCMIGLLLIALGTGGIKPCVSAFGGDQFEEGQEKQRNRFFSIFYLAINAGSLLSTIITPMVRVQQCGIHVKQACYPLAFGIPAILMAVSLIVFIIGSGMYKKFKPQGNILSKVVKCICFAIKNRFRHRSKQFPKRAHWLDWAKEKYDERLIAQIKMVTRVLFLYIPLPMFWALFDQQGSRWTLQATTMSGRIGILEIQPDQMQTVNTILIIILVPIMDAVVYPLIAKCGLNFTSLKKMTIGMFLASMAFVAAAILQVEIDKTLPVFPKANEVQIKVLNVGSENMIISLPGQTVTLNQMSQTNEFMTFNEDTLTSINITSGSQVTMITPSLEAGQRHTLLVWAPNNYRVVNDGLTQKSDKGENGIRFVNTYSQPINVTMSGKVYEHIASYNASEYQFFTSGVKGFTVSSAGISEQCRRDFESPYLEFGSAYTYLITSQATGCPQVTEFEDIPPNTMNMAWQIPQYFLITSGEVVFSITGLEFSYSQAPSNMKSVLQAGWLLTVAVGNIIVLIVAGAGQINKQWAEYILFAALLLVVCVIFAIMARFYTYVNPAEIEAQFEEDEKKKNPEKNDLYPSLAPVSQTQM
Procedure: (§1) rPepT1 constructs were linearised with XbaI (New England Biolabs, UK) and cRNA generated by in vitro transcription (T7 mMessage mMachine, Ambion, Cambridgeshire, UK). Xenopus laevis oocytes were obtained under MS222 anaesthesia (0.2%, w/v) in accordance with the UK Animals (Scientific Procedures) Act, 1986, and maintained at 18 °C in modified Barth's medium (88 mM NaCl, 1 mM KCl, 0.82 mM MgSO4, 2.4 mM NaHCO3, 0.42 mM CaCl2, 10 mM Hepes, 5 mM sodium pyruvate, 50 μg ml^−1 gentamicin (Fluka, Poole, UK), adjusted to pH 7.6 with 1 M NaOH). Transport measurements were performed at least 72 h after micro-injection of oocytes with 27nl cRNA (1 μg/μl), with medium changed daily.
Uptake of [^3H]-D-Phe-L-Gln (17.4 Ci/mmole, custom synthesised, Cambridge Research Biochemicals, Stockton-on-Tees, UK) was performed as previously described ([Meredith, 2004]). […] After incubation, the oocytes were washed sequentially five times in 1 ml of ice-cold 120 mM NaCl solution, lysed individually with 100 μl 2% (w/v) SDS and liquid scintillation counted. […]
Luminometry assays were performed as described previously ([Panitsas et al., 2006]). […] Luminometer (Turner-Designs 20/20, Promega) readings for at least 15 oocytes per data point were taken immediately.

Y345F-rPepT1 = molecular target: T2, Y345F-rPepT1 (Oryctolagus cuniculus, UniProt P36836, Y345F); experiment: Competition of [3H]-D-Phe-L-Gln uptake into Xenopus oocytes, Ki; format: cell-based, rabbit; conditions: against 0.4 μM [3H]-D-Phe-L-Gln uptake
T2 construct: expressed in transfected cells; host or cells: Xenopus laevis oocytes injected with cRNA
T2 sequence (P36836 1-707 Y345F): T1 sequence (P36836 1-707 Y91F) with F91Y, Y345F
Procedure: as §1
Uptake of [^3H]-D-Phe-L-Gln (17.4 Ci/mmole, custom synthesised, Cambridge Research Biochemicals, Stockton-on-Tees, UK) was performed as previously described ([Meredith, 2004]). Briefly, 5 oocytes were incubated in 100 μl of uptake medium (95 mM NaCl, 2 mM KCl, 1 mM CaCl2, 0.42 mM MgCl2, 10 mM Tris/Hepes pH 7.4 or Tris/Mes pH 5.5) with tracer (0.4 μM) [^3H]-D-Phe-L-Gln. After incubation, the oocytes were washed sequentially five times in 1 ml of ice-cold 120 mM NaCl solution, lysed individually with 100 μl 2% (w/v) SDS and liquid scintillation counted. As a control non-injected oocytes were also incubated in uptake medium with D-Phe-L-Gln as above.
The affinity of wild-type and mutant rPepT1 transporters were assessed by competition studies with 0.4 μM [^3H]-D-Phe-L-Gln and Gly-L-Gln present in the uptake medium in concentrations from 0 to 2 mM using the protocol above, and the Ki calculated using the method of [Deves and Boyd (1989)].

decrease in the rate of transport per protein molecule (Y91F-rPepT1) [%] | Ki (Y345F-rPepT1; pHout 5.5) [µM] | Ki (Y345F-rPepT1; pHout 7.4) [µM] | Compound
40 |  |  | [^3H]-D-Phe-L-Gln
 | 320 ± 70 | 180 ± 50 | NCC(=O)N[C@@H](CCC(N)=O)C(=O)O [Gly-L-Gln] (H-Gly-Gln-OH)
